Laboratory results as given in article PMC4820309, “Pseudopterosin A: Protection of Synaptic Function and Potential as a Neuromodulatory Agent” (Marine Drugs, 2016).
Where two headings read alike, the source gives them in different places.

Key:
Drosophila larval NMJ [1] = assay: Synaptic transmission at the Drosophila larval NMJ during NaN3-induced oxidative stress (EJP recording until synaptic failure); format: cell-based, Drosophila melanogaster; conditions: for average time until synaptic failure: mean ± SE
Protocol: (§1) This study used wild-type Canton-S Drosophila melanogaster third instar wandering larvae (~110 h old). All larvae were raised within an equal population density in 170 mL plastic culture bottles (~100 flies per bottle) containing 50 mL of Nutri-Fly Bloomington Formulation (Genessee Scientific, San Diego, CA, USA) fly food in an incubator at 25 °C under a 12 h:12 h light–dark light cycle.
(§2) Synaptic transmission was measured in Canton-S animals as previously described. Briefly, individual Canton-S third instar larvae were placed in a glass dissecting dish containing 2 mL of Schneider’s insect medium (Sigma, St. Louis, MO, USA) with the dorsal side up using standard insect pins. A longitudinal cut was made along the dorsal surface and the internal organs and central nervous system were removed to expose the underlying segmental muscles and nerves. An extracellular glass suction electrode was used to stimulate segmental nerves in muscle segments. The postsynaptic excitatory junction potential (EJP) was recorded from muscle 6 in abdominal segment A3 or A4 with a sharp intracellular glass recording electrode filled with 3 M KAc (~40 MΩ). The Schneider’s insect medium was replaced with 2 mL of hemolymph-like (HL-3) saline (1.5 mM CaCl2, 20 mM MgCl2, 5 mM KCl, 70 mM NaCl, 10 mM NaHCO3, 5 mM BES, 115 mM sucrose, 5 mM trehalose·2H2O) made fresh daily. EJP recordings were viewed with an oscilloscope and digitally stored using the Scope program (AD Instruments, Colorado Springs, CO, USA) for analysis. Evoked EJPs from repetitive stimulation (0.3 ms pulses delivered suprathreshold with a 1 Hz frequency) of both axons in larval muscle 6 were recorded in a stop-flow condition until synaptic transmission failure (amplitude < 1 mV).
(§3) The same electrophysiology preparation assay described above was performed; however, Canton-S larvae were also exposed to oxidative stress, Trolox, and PsA. Oxidative stress was induced in larval preparations by adding either 1 mM H2O2 or 75 µM NaN3 to the HL-3 saline (all chemicals obtained from Sigma, St. Louis, MO, USA). Larvae subjected to oxidative stress and simultaneous drug treatment included one of the following agents dissolved in DMSO: 5 µM Trolox or 1 µM PsA. A dose-response assay from 0.5 to 10 µM was performed to determine the effective concentration of PsA to prolong synaptic transmission at the Drosophila larval NMJ during oxidative stress exposure (Figure 3).
(§4) All synaptic function data were analyzed using SigmaPlot (Systat Software, San Jose, CA, USA) statistical analysis software. A one-way analysis of variance (ANOVA) test followed by a post hoc multiple comparisons procedure (Holm–Šidák) was used to compare significant differences across all treatment groups. Statistical significance (p < 0.05) was assigned using letter designations, where different letters show significant differences and the same letter assignments are not significant. The letter assignments begin with “A” representing the highest mean, “B” indicating the next highest, and so forth. All vertical bar charts are shown with the means ± SE.

[2] = parameters: method as in PMID 22851883; conditions: cited from earlier work
mice = assay: Tolerability in mice after 50 mg/kg intravenous injection
Protocol: Male NIH Swiss mice (25–30 g) were obtained from Harlan Laboratories, Inc. The mice were acclimated (5 mice/cage) for at least 7 days in an AAALAC (Association for Assessment and Accreditation of Laboratory Animal Care) approved animal care facility after arrival. […] The mice were fasted 12 h before receiving PsA and fed 4 h after drug administration. All mice received an IV bolus dose of PsA (50 mg/kg) via the tail vein. The mice (N = 3 per time point) were sacrificed under anesthesia and blood samples were collected at each time point (2, 5, 10, 15, 30, 60, 90, 120, 180, 240, 360, 480, 720 min) into heparinized microcentrifuge tubes. Plasma was prepared by centrifugation of blood at 1000 g for 15 min at 4 °C and stored at −80 °C until analysis. Tissues (brain, liver, and kidney) were also collected and homogenized (with 1:1 water for tissues) and stored at −80 °C until analysis. Plasma, liver, brain, and kidney were processed and analyzed as mentioned above. A calibration curve from each matrix was prepared on the day of analysis to calculate the concentrations of PsA present in the real samples. The concentration–time profiles of PsA in all matrices were plotted.

Drosophila larval NMJ [3] = assay: Synaptic transmission at the Drosophila larval NMJ during H2O2-induced oxidative stress (EJP recording until synaptic failure); format: cell-based, Drosophila melanogaster
Protocol: as §1, §2, §3, §4

[4] = Pharmacokinetics and tissue distribution of PsA in mice after IV bolus; format: in vivo, mouse; conditions: for Kp / half-life: mouse, iv, 50 mg/kg; for AUC (AUClast): linear trapezoidal rule
Protocol: After spiking with 10 µL of 17β-estradiol (100 µg/mL), 100 µL plasma or […] of tissue homogenate (prepared as above) was mixed with 300 µL of acetonitrile and vortex-mixed for 15 s. The samples were then extracted with 0.6 mL of ethyl acetate. After centrifugation for 10 min at 2000× g, the upper organic layer was removed and evaporated to dryness under reduced pressure in a vacuum centrifuge. The residue obtained was reconstituted in 80 µL acetonitrile with ultrasonic treatment for 1 min and the derivatization was performed as follows.
The HPLC measurements were carried out using a Shimadzu LC-20AT liquid chromatography, which were coupled to a UV-SPD-M20A diode array detector. Data acquisition was performed using EZStart chromatography software package version 7.4. The chromatographic separation of NBD-Cl -derivative of PsA was achieved using Phenomenex Gemini 5 µm C18 110 Å column with a Phenomenex Security Guard C18 guard column (Torrance, CA, USA). The Mobile phase: A: 20 mM AcONH4 (pH = 7.4): ACN (2:1); B: CAN. Running program: 0–5 min, 80%–90% B; 5–7 min, 90% B; 7–12 min, 90%–100% B; 12–15 min, 100%–80% B. The mobile phase flow rate was 1.0 mL/min and the UV detection wavelength was set to 378 nm. Under the chromatographic conditions described, NBD-Cl derivatives of PsA and 17β-estradiol eluted at 7.3 and 5.5 min, respectively.
(Pharsight, Mountain View, CA, USA).

[5] = male, NIH Swiss, mouse brain, 50 mg/kg IV
[6] = male, NIH Swiss, mouse kidney, 50 mg/kg IV
[7] = male, NIH Swiss, mouse liver, 50 mg/kg IV
[8] = male, NIH Swiss, mouse plasma, 50 mg/kg IV bolus, estimate ± standard error

## [N-]=[N+]=[N-].[Na+] [NaN3, sodium azide, reference compound]
Drosophila larval NMJ [1]; NaN3 75 µM alone, control 130 ± 3 min
  average time of synaptic activity until failure: 44 ± 3 min
Drosophila larval NMJ [1]; NaN3 75 µM alone, controls 136 or 139 min
  maximal time of synaptic activity before failure: 52 min

## CC(C)=C[C@H]1C[C@H](C)[C@H]2CC[C@H](C)c3c(O[C@@H]4OC[C@@H](O)[C@H](O)[C@H]4O)c(O)c(C)c1c32 [PsA, pseudopterosin A]
[2]
  lipophilicity: high lipophilicity
mice
  tolerability of the dose: well tolerated
Drosophila larval NMJ [3]; PsA 1 µM during H2O2 1 mM exposure, vs H2O2 alone
  increase of synaptic tolerance: 26%
Drosophila larval NMJ [3]; PsA 1 µM with H2O2 1 mM
  maximal synaptic failure time: 70 min
Drosophila larval NMJ [3]; PsA 1 µM with H2O2 1 mM, mean ± SE
  average time until synaptic transmission failure: 63 ± 2 min
Drosophila larval NMJ [1]; PsA 500 nM during NaN3 75 µM exposure, vs NaN3 alone
  increase of synaptic tolerance: 87%
Drosophila larval NMJ [1]; PsA 500 nM with NaN3 75 µM
  average time until synaptic failure: 83 ± 5 min
Drosophila larval NMJ [1]; PsA 1 µM during NaN3 75 µM exposure, vs NaN3 alone
  increase of synaptic functional tolerance: 152%
Drosophila larval NMJ [1]; PsA 1 µM with NaN3 75 µM
  maximal synaptic failure time: 122 min
Drosophila larval NMJ [1]; PsA 1 µM with NaN3 75 µM, failure = EJP amplitude < 1 mV
  average time until synaptic failure: 112 ± 4 min
[4]; male, NIH Swiss, brain / plasma, mouse brain, 50 mg/kg IV, read-out: Relative Exposure (AUCtissue/AUCplasma)
  Kp: 1.36
[4]; male, NIH Swiss, brain, mouse brain, 50 mg/kg IV, read-out: Half-life (converted)
  half-life: 2.91 h
[4]; male, NIH Swiss, brain, liver, kidney / plasma, all tissues (brain, liver, kidney) vs plasma, 50 mg/kg IV, read-out: relative exposure (RE)
  Kp: 1.27 to 1.36
[4]; male, NIH Swiss, brain, liver, kidney / plasma, brain, liver and kidney during the elimination phase, 50 mg/kg IV, read-out: tissue/plasma concentration ratios
  Kp: > 1
[4]; male, NIH Swiss, kidney / plasma, mouse kidney, 50 mg/kg IV, read-out: Relative Exposure (AUCtissue/AUCplasma)
  Kp: 1.28
[4]; male, NIH Swiss, kidney, mouse kidney, 50 mg/kg IV, read-out: Half-life (converted)
  half-life: 3.98 h
[4]; male, NIH Swiss, liver / plasma, mouse liver, 50 mg/kg IV, read-out: Relative Exposure (AUCtissue/AUCplasma)
  Kp: 1.27
[4]; male, NIH Swiss, liver, mouse liver, 50 mg/kg IV, read-out: Half-life (converted)
  half-life: 3.16 h
[4]; male, NIH Swiss, plasma, brain, liver, kidney, mouse plasma and tissues (brain, liver, kidney), 50 mg/kg IV, read-out: elimination half-life
  half-life: 3 to 4 h
[4]; male, NIH Swiss, plasma, mouse plasma, 50 mg/kg IV bolus, two-compartment model, estimate ± standard error, read-out: Distribution Half-life (converted)
  half-life: 0.05 ± 0.005 h
[4]; male, NIH Swiss, plasma, mouse plasma, 50 mg/kg IV bolus, two-compartment model, estimate ± standard error, read-out: Elimination Half-life (converted)
  half-life: 3.21 ± 0.3 h
[4]; [5]
  Cmax: 10000 ng/g
  Tmax: 0.5 h
[4]; [6]
  Cmax: 3000 ng/g
  Tmax: 1.5 h
[4]; [7]
  Cmax: 10100 ng/g
  Tmax: 0.17 h
[4]; [8]
  AUC: 14400 ± 950 ng·h/mL
  Cmax: 85.5 ± 7.64 µg/mL
  clearance: 58 mL/min/kg
[4]; male, NIH Swiss, mouse plasma, 50 mg/kg IV bolus, estimate ± standard error, read-out: Vss
  Vd: 10.1 ± 1.35 L/kg
[4]; mouse brain, 50 mg/kg IV
  time of peak mean concentration: 30 min
  AUC (AUClast): 19.49 mg·h/kg
[4]; mouse kidney, 50 mg/kg IV
  time of peak mean concentration: 90 min
  AUC (AUClast): 18.37 mg·h/kg
[4]; mouse liver, 50 mg/kg IV
  time of peak mean concentration: 10.2 min
  AUC (AUClast): 18.20 mg·h/kg

## Cc1c(C)c2c(c(C)c1O)CCC(C)(C(=O)O)O2 (centres unmarked) [Trolox, 6-hydroxy-2,5,7,8-tetramethylchromane-2-carboxylic acid, reference compound]
Drosophila larval NMJ [3]; Trolox 5 µM during H2O2 1 mM exposure, vs H2O2 alone
  increase of synaptic function: 60%
Drosophila larval NMJ [3]; Trolox 5 µM with H2O2 1 mM
  maximal time until synaptic breakdown: 85 min
Drosophila larval NMJ [3]; Trolox 5 µM with H2O2 1 mM, mean ± SE
  average time until synaptic transmission failure: 80 ± 2 min
Drosophila larval NMJ [1]; Trolox 5 µM during NaN3 75 µM exposure, vs NaN3 alone
  increase of synaptic activity: 25%
Drosophila larval NMJ [1]; Trolox 5 µM with NaN3 75 µM
  maximal time until synaptic breakdown: 64 min
  average time until synaptic failure: 55 ± 3 min

## OO [H2O2, hydrogen peroxide]
Drosophila larval NMJ [3]; H2O2 1 mM alone, control 132 ± 3 min
  average time until synaptic transmission failure: 50 ± 2 min
Drosophila larval NMJ [3]; H2O2 1 mM alone, controls 136 or 139 min
  maximal time of synaptic activity before failure: 55 min
